Assay results published in EP0818467B1, “Aligned peptide array and a rational and rapid method for the detection of a binding or interaction site of a protein by using the same” (NEC CORPORATION, priority 1996, dated 1998).

How the values were obtained:
[1] = tested on: third peptide segment, in which one amino acid had been replaced; assay: aligned peptide array membrane with one amino acid replaced in the third peptide segment, autoradiography; format: binding; details: formula (IV): G (glycine) in the third peptide segment replaced by E (glutamate)
Procedure: (§1) The aligned peptide array membrane was reacted with a phorbol ester labeled with tritium (^3H) and then brought into contact with a photographic film. Thus, the reaction spot was identified by autoradiography.
In the third peptide segment detected in Example 2, one amino acid was replaced as shown in the following formula (IV). Excepting this modification, detection was carried out in the same manner as in Example 2. [formula]

[2] = tested on: regulatory region of protein kinase C (PKC); assay: aligned peptide array membrane reacted with tritium-labeled phorbol ester, autoradiography; format: binding; details: peptide segments of formula (III); phorbol ester labeled with tritium (3H)
Procedure: First of all, an amino acid sequence corresponding to a portion of the regulatory region of protein kinase C (PKC) was divided as shown in the following formula (III), and the corresponding peptide segments were synthesized. Then, an aligned peptide array membrane was prepared in the same manner as given in Example 1. [formula]
as §1

With `CCCCCCCCCCCCCC(=O)O[C@@H]1[C@@H](C)[C@@]2(O)[C@@H](C=C(CO)C[C@]3(O)C(=O)C(C)=C[C@@H]23)[C@@H]2C(C)(C)[C@]12OC(C)=O` [phorbol ester] the “exposure to radiation at the position of the peptide segment” value [1] was “no exposure to radiation was observed at the position of the third peptide segment” and the “exposure to radiation at the position of the peptide segment” value [2] was “exposure to radiation was observed at the position of the peptide segment corresponding to the third sequence segment of formula (III)”.
